According to patent US10329542B2, “HBV RNAse H purification and enzyme inhibitors” (Saint Louis University, priority 2012, dated 2019):

Experiments:
[1] = target: T1, HBV genotype D RNAseH (HRHPL) (Hepatitis B virus genotype D subtype ayw, UniProt P03156, INS679M); assay: Oligonucleotide-directed RNAseH cleavage assay, HBV genotype D; format: biochemical; details: for Residual activity at 10 uM, Genotype D: ± standard deviation, 3 to 7 replicates; for Activity vs. HBV Biochemical vs. gtD: class by concentration giving inhibition (10, 20, 60 μM)
T1 construct: HRHPL contains HBV genotype D (Genbank V01460) polymerase residues 684-845; made in house; host or cells: E. coli BL21 codon+
T1 sequence (P03156 680-832, added parts left off, stated change not applied): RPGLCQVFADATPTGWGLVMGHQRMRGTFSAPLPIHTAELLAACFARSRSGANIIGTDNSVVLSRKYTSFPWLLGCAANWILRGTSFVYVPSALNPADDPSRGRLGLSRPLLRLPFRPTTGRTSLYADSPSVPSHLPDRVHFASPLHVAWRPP
Method: (§1) For the oligonucleotide-directed RNAseH cleavage assay (Gong et al., 2001), 6 μl protein extract (typical protein concentration 2.8 mg/ml) was mixed with 0.5 μg internally ^32P-labeled DRF+ RNA (nucleotides 2401-2605 of the duck HBV genome plus 60 nucleotides of flanking sequences from pBluescript) and 3 μg oligonucleotide D2507- or its corresponding negative control D2526+ on ice in 20 μl under the conditions in Table 1. Some reactions in FIG. 5 employed oligonucleotide D2543M-Sal or its D2453+ negative control as indicated. The reactions were incubated at 42° C. for 90 min. and terminated by addition of Laemmli protein loading buffer and boiling. The samples were resolved by 12% SDS-PAGE, the gels were stained with Coomassie blue to monitor protein loading, and labeled RNA was detected by autoradiography. Candidate inhibitors were dissolved in DMSO and added at the indicated concentrations during assembly of the reactions. Control reactions lacking the compounds contained DMSO as a vehicle control. The RNAseH autoradiograms were scanned and quantified with ImageJ.
(§2) Oligonucleotide-directed RNAseH cleavage assays (Gong et al., 2001) were performed as described (Tavis et al., 2013). Briefly, HBV RNAseH extracts were mixed with a 264 nt-long internally ^32P-labeled RNA plus an excess of a complementary DNA oligonucleotide or its inverse-complement as a negative control in a final concentration of 65 mM Tris pH 8.0, 190 mM NaCl, 5 mM MgCl2, 5 mM dTT, 0.05% NP40, and 6% glycerol. βTJ was dissolved in DMSO and added at the indicated concentrations; the final concentration of DMSO in all reactions was 1%. The reactions were incubated at 42° C. for 90 min. and terminated by addition of Laemmli protein electrophoresis buffer. The samples were resolved by SDS-PAGE, labeled RNA was detected by autoradiography, the autoradiograms were scanned, and the RNA cleavage products were quantified with ImageJ (National Institutes of Health). IC50 values were calculated by non-linear regression using GraphPad Prism (GraphPad Software, Inc.).

[2] = target: T2, chimeric HBV:HIV RNAseH HHC1 (Hepatitis B virus genotype D subtype ayw, UniProt P03156, DELINS787-795[…]/INS679M); assay: Oligonucleotide-directed RNAseH cleavage assay, chimeric HHC1; format: biochemical; details: 10 μM; ± standard deviation, 3 to 7 replicates
T2 construct: HHC1 is an HRHPL derivative; made in house; host or cells: E. coli BL21 codon+
T2 sequence (P03156 680-786, added parts left off, stated change not applied): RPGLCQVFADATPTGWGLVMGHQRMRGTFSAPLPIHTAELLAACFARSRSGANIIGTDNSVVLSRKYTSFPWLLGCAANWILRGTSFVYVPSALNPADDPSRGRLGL
From the text: pCMV-HBV-LE-(CMV-HBV) is an HBV over-length genomic expression vector containing 1.2 copies of the HBV(adw2) genome (Genbank X02763.1) downstream of the CMV promoter cloned into pBS (Promega). Surface protein expression from this vector is ablated by mutating the preS and S open reading frames. pCMV-HBV(genotype D) is an analogous HBV genomic expression construct and was a gift from Dr. Shuping Tong (Brown University). For bacterial expression, codon-optimized cDNA sequences for HRHPL (genotypes A, B, C, D, and H), and noncodon-optimized sequences for HHC1 and HHC2 were cloned by gene synthesis (Genscript) between the NcoI and EcoRI sites into pTrcHis2B (Invitrogen) with a C-terminal hexahistidine tag. HRHPL contains HBV genotype D (Genbank V01460) polymerase residues 684-845. HHC1 is an HRHPL derivative in which HBV polymerase residues 800-808 were replaced with HIV residues corresponding to the RNAseH helix D ([…]; SEQ ID NO:6). HHC2 is an HRHPL derivative in which HBV polymerase residues 800-845 were replaced with HIV residues corresponding to the RNAseH helix D to the C-terminus ([…]; SEQ ID NO:7). The human RNAseH1 gene (NP_002927.2) was cloned with an N-terminal hexahistidine-tag between the BamHI and XhoI sites of pRsetB (Invitrogen) by gene synthesis.
as §1, with “ImageJ. The oligonucleotides were: D2526+([…]; SEQ ID NO:8), D2507-([…]; SEQ ID NO:9), D2453+([…]; SEQ ID NO:10), and D2543M-Sal ([…]; SEQ ID NO:11).” for “ImageJ.”

human RNAseH1 = target: T3, human RNAseH1 (Homo sapiens, UniProt O60930); assay: Oligonucleotide-directed RNAseH assay, recombinant human RNAseH1; format: biochemical; details: for Activity vs. human RNAseH1: class by concentration giving inhibition (10, 20, 60 μM)
T3 construct: hexahistidine (N); made in house; host or cells: E. coli BL21 codon+
T3 sequence (O60930 1-286): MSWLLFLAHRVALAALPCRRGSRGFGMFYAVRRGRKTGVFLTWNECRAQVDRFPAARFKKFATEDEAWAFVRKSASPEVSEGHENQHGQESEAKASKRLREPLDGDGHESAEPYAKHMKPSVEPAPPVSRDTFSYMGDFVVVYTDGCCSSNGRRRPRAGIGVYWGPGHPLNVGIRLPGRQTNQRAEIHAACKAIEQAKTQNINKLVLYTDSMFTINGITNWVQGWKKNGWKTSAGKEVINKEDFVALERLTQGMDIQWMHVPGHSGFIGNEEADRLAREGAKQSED
Method: as §1, with “ImageJ. The oligonucleotides were: D2526+([…]; SEQ ID NO:8), D2507-([…]; SEQ ID NO:9), D2453+([…]; SEQ ID NO:10), and D2543M-Sal ([…]; SEQ ID NO:11).” for “ImageJ.”
Therefore, the inventors cloned the human RNAseH1 with an N-terminal hexahistidine tag, expressed it in E. coli, and purified the protein by nickel affinity chromatography. […] This enzyme was active in the oligonucleotide-directed and fluorescent RNAseH assays (FIG. 10B and data not shown). To determine how inhibition of human RNAseH1 compared to inhibition of the HBV RNAseH, the inventor titrated the RNAaseH1 enzyme to yield similar levels of activity as the HBV enzyme, and then the inventor directly compared the ability of compounds #8-12 to inhibit human RNAseH1 and HRHPL at 10 μM. […] Therefore, it is possible to inhibit the HBV RNAseH without inhibiting human RNAseH1.
as §2

HBV genotype H RNAseH = assay: Oligonucleotide-directed RNAseH cleavage assay, HBV genotype H; format: biochemical, Hepatitis B virus; details: 10 μM; ± standard deviation, 3 to 7 replicates
Method: as §1, with “ImageJ. The oligonucleotides were: D2526+([…]; SEQ ID NO:8), D2507-([…]; SEQ ID NO:9), D2453+([…]; SEQ ID NO:10), and D2543M-Sal ([…]; SEQ ID NO:11).” for “ImageJ.”
as §2

HBV = HBV genomic replication assays (Table 2); format: cell-based, Hepatitis B virus; details: class by active concentration
Method: Huh7 cells were maintained in Dulbecco's modified Eagle's medium with 10% fetal bovine serum at 37° C. in 5% CO2. Cells were seeded into 60 mm dishes and transfected at 70% confluency with 2.6 μg of plasmids using TransIT-LT1 (Mirus, Inc.). Test compounds were added the morning following transfection at 10 or 50 μM, and fresh medium containing the compounds was provided every 1-2 days. Four or five days post-transfection HBV cores were isolated by lysis of the cells in 10 mM Tris pH 7.5, 1 mM EDTA, 0.25% NP40, 50 mM NaCl, and 8% sucrose followed by sedimentation through a 30% sucrose cushion as described (Travis, et al., 1998). Viral DNAs were isolated from cytoplasmic core particle preparations by proteinase K digestion followed by phenol/chloroform extraction as described (Gong et al., 2001). Duplicate aliquots of the nucleic acids were treated with 2 U E. coli DNAse-free RNAseH (Invitrogen) at 37° C. for 30 min. or were mock treated. The nucleic acid samples were resolved by electrophoresis on 1.2% agarose gels and detected by Southern blotting with ^32P-labeled HBV DNA as a probe. […]

HBV genotype C RNAseH = assay: Oligonucleotide-directed RNAseH cleavage assay, HBV genotype C; format: biochemical, Hepatitis B virus; details: class by concentration giving inhibition (10, 20, 60 μM)
Method: as §1, with “ImageJ. The oligonucleotides were: D2526+([…]; SEQ ID NO:8), D2507-([…]; SEQ ID NO:9), D2453+([…]; SEQ ID NO:10), and D2543M-Sal ([…]; SEQ ID NO:11).” for “ImageJ.”
Incremental improvements were developed in extraction of the HBV RNAseH from the bacterial cell pellets since the data were generated for Examples 1 and 2. Key among these was shifting from using a cup sonicator to a probe sonicator and reducing the duration of the sonication period from 3×60 second bursts to 3×20 second bursts. When the […] genotype C clone that had inconsistent activity under the old extraction conditions (FIG. 6C) was isolated under these conditions, it became consistently and robustly active (FIG. 16).

SMILES | Residual activity at 10 uM, Genotype D [1] [Percent DMSO control] | Activity vs. HBV Biochemical vs. gtD [1] | Residual activity at 10 uM, HHC1 [2] [Percent DMSO control] | Activity vs. human RNAseH1 (human RNAseH1) | Residual activity at 10 uM, Genotype H (HBV genotype H RNAseH) [Percent DMSO control] | Activity vs. HBV Genomic Replication (HBV) | Inhibition of human RNAseH1 (human RNAseH1; 10 μM, compared directly with HRHPL) | Activity vs. HBV Biochemical vs. gtC (HBV genotype C RNAseH)
O=c1c(O)c(-c2ccc(O)c(O)c2)oc2cc(O)c(O)c(O)c12 [Compound 7] | 45 ± 19 | − (− no inhibition at 60 μM) | 56 ± 13 | +++ (+++ inhibition at 10 μM) | 68 ± 24 | − (− no activity at 60 μM) |  | 
O=c1c(O)c(-c2cc(O)c(O)c(O)c2)oc2cc(O)cc(O)c12 [Compound 9] | 33 ± 10 | ++ (++ inhibition at 20 μM) | 58 ± 15 | ++ (++ inhibition at 20 μM) | 66 ± 23 | − (− no activity at 60 μM) | inhibited it weakly | 
Cc1cc(C)c(C#N)c(=O)[nH]1 [Compound 20] |  | − (− no inhibition at 60 μM) |  |  |  |  |  | − (− no inhibition at 60 μM)
O=c1cc2oc3cc(O)c(O)cc3c(-c3ccccc3)c-2cc1O [Compound 31] | 26 ± 15 | +++ (+++ inhibition at 10 μM) | 42 ± 12 | +++ (+++ inhibition at 10 μM) | 50 ± 10 | − (− no activity at 60 μM) |  | 
CN(C)c1ccc(-c2c3cc(O)c(=O)cc-3oc3cc(O)c(O)cc23)cc1 [Compound 35] | 27 ± 14 | +++ (+++ inhibition at 10 μM) | 39 ± 9 | +++ (+++ inhibition at 10 μM) | 38 ± 20 | − (− no activity at 60 μM) |  | 
Cc1sc2nc(-c3ccc([N+](=O)[O-])cc3)[nH]c(=O)c2c1C [Compound 38] | 24 ± 1 | +++ (+++ inhibition at 10 μM) | 32 ± 4 |  | 38 ± 25 | − (− no activity at 60 μM) |  | 
O=c1ccc2ccccc2n1O [Compound 43] |  | − (− no inhibition at 60 μM) |  | − (− no inhibition at 60 μM) |  |  |  | + (+ inhibition at 60 μM)
O=C1c2cccc3cccc(c23)C(=O)N1O [Compound 45] |  | − (− no inhibition at 60 μM) |  | − (− no inhibition at 60 μM) |  | − (− no activity at 60 μM) |  | + (+ inhibition at 60 μM)
CC(C)n1cc(C(=O)O)c(=O)c2ccccc21 [Compound 64] |  | + (+ inhibition at 60 μM) |  |  |  |  |  | − (− no inhibition at 60 μM)
CCn1cc(C(=O)O)c(=O)c2cc(Cc3ccccc3)c(OCCOC)cc21 [Compound 69] |  | ++ (++ inhibition at 20 μM) |  |  |  |  |  | + (+ inhibition at 60 μM)
CCn1cc(C(=O)O)c(=O)c2cc(F)c(N3CCNCC3)nc21 [Compound 71, Enoxacin, reference compound] |  | − (− no inhibition at 60 μM) |  |  |  |  |  | − (− no inhibition at 60 μM)
Cn1c(N2CCCCS2(=O)=O)nc(C(=O)NCc2ccc(F)cc2)c(O)c1=O [Compound 72, reference compound] |  | ++ (++ inhibition at 20 μM) |  |  |  |  |  | + (+ inhibition at 60 μM)
C[C@@H]1CCO[C@H]2Cn3cc(C(=O)NCc4ccc(F)cc4F)c(=O)c(O)c3C(=O)N12 [Compound 73, Dolutegravir, reference compound] |  | + (+ inhibition at 60 μM) |  |  |  |  |  | − (− no inhibition at 60 μM)
